Values joined by “and” are separate entries in the source; they are usually repeats but may differ in a detail not shown here. Equal values may be shown once.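 Each compound was tested at five concentrations against cells in 96-well plates for 48 hours. GI50: concentration for 50% inhibition of growth. The concentration for full growth arrest is given as TGI.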 Where a SMILES comes first, the peptide text is derived from it. [ ]: non-standard residue; d: D form. The star is where a group is joined. ξ: configuration not given here. ξF = NC(Cc1ccccc1)C(=O)O; Cbz = O=C(OCc1ccccc1)*; Aib = CC(C)(N)C(=O)O
Assays:
Experiment in all cases: NCI tumour cell line growth inhibition, 48 h
[1] = tested on: UACC-257 melanoma
[2] = tested on: SNB-19 CNS
[3] = tested on: A549 NSCLC
[4] = tested on: SK-MEL-2 melanoma
[5] = tested on: MDA-MB-435
[6] = tested on: SF-295 CNS
[7] = tested on: OVCAR-4 ovarian
[8] = tested on: NCI/ADR-RES ovarian
[9] = tested on: NCI-H23 lung
[10] = tested on: NCI-H460 lung

SMILES | GI50 [1] [µM] | TGI [1] | GI50 [2] [µM] | TGI [2] | GI50 [3] [µM] | TGI [3] | GI50 [4] [µM] | TGI [4] | TGI [5] [µM] | TGI [6] | TGI [7] | GI50 [8] [µM] | TGI [8] | GI50 [9] [µM] | TGI [9] | GI50 [10] [µM] | TGI [10]
CCN(CC)CC[n+]1ccc2c(C)c3[nH]c4ccc(O)cc4c3c(C)c2c1 | 24.2 | 43.9 µM and 91.6 µM | 0.634 | 8.76 µM and 10.8 µM | 1.5 | 30.6 µM and 43.6 µM | 20.8 | 32 µM and 54.2 µM | 23.1 | 30.1 µM and 28.4 µM | 23.4 µM and 30.4 µM | 21.7 | 79.6 µM and 102 µM | 2.45 | 25.1 µM and 22.5 µM | 0.147 | 13.3 µM and 3.45 µM
Nc1[nH]c(=S)nc2nc3c(c(-c4ccccc4)c12)CCCC3 | – | – | – | > 100 µM | – | > 100 µM | – | – | > 100 | > 100 µM | > 100 µM | – | > 100 µM | – | > 100 µM | – | > 100 µM
CCCCCCCCCCCCCC1=C(O)C(=O)C(CC2=C(O)C(=O)C(CCCCCCCCCCCCC)=C(O)C2=O)=C(O)C1=O | – | > 100 µM | – | 92.9 µM | – | > 100 µM | – | > 100 µM | – | > 100 µM | – | – | – | – | > 100 µM | – | –
CN(C)CCNC(=O)c1cc(Cl)cc2cc3ccccc3nc12 | – | 3.66 µM | – | 7.47 µM | – | 3.88 µM | – | 3.76 µM | – | 2.85 µM | 8.04 µM | – | 5.82 µM | – | 3.42 µM | – | 2.41 µM
Cc1[nH]c(=O)[nH]c(=O)c1/C=C/C(=O)NC(CO)CS(=O)CS(C)=O (stereo unspecified) | – | 151 µM | – | 77.9 µM | – | 332 µM | – | 59.2 µM | – | 77.5 µM | 14.9 µM | – | 263 µM | – | 43.7 µM | – | 68.1 µM
CCOC(=O)CCC(C(=O)OCC)n1nc2ccc(Nc3c(C)[n+]([O-])c4cc(F)c(OCC)cc4[n+]3[O-])cc2n1 (stereo unspecified) | – | > 100 µM | – | > 100 µM | – | > 100 µM | – | > 100 µM | > 100 | > 100 µM | > 100 µM | – | > 100 µM | – | > 100 µM | – | > 100 µM
COc1cc(/C=C2\N=C(c3ccccc3)N(c3ccc(C(=O)c4ccccc4)cc3N3C(=O)/C(=C/c4ccc(O)c(OC)c4)N=C3c3ccccc3)C2=O)ccc1O | – | 39.6 µM | – | > 100 µM | – | 62.7 µM | – | 29.9 µM | 8.16 | 28.8 µM | 84.4 µM | – | 89.5 µM | – | – | – | 20.2 µM
CCCCCCCCCCCCCCCCCCNc1ccn(C2OC(CO)C(OP(=O)(O)OCC(O)COP(=O)(O)OCC3OC(n4cc(F)c(NCCCCCCCCCCCCCCCCCC)nc4=O)CC3O)C2O)c(=O)n1 (stereo unspecified) | – | > 50 µM | – | > 50 µM | – | > 50 µM | – | > 50 µM | > 50 | > 50 µM | > 50 µM | – | > 50 µM | – | > 50 µM | – | > 50 µM
CCOC(=O)CNC(=O)C(Cc1ccccc1)NC(=O)C(C)(C)NC(=O)OCc1ccccc1 (stereo unspecified) (Cbz-[Aib]-[ξF]-Gly-OEt) | – | > 100 µM | – | > 100 µM | – | > 100 µM | – | – | > 100 | > 100 µM | > 100 µM | – | > 100 µM | – | – | – | –
CCCCN1C(=O)c2c(Br)sc(Br)c2C1=O | – | > 100 µM | – | > 100 µM | – | 70.3 µM | – | > 100 µM | > 100 | > 100 µM | 91.1 µM | – | 88.2 µM | – | > 100 µM | – | > 100 µM
CC(C)(C)c1ccc2c(c1)C#Cc1cc(C(C)(C)C)ccc1OCCCO2 | – | > 100 µM | – | > 100 µM | – | > 100 µM | – | > 100 µM | > 100 | > 100 µM | > 100 µM | – | > 100 µM | – | > 100 µM | – | > 100 µM
OCC(O)CNc1ncnc2ccccc12 (stereo unspecified) | – | > 100 µM | – | > 100 µM | – | > 100 µM | – | > 100 µM | > 100 | > 100 µM | > 100 µM | – | > 100 µM | – | > 100 µM | – | > 100 µM
COC(=O)C1=C(C)N2CCSC2(C)C(C(=O)OC)C1c1cccc(Cl)c1 (stereo unspecified) | – | 21.7 µM | – | 73.2 µM | – | 65.3 µM | – | 34.2 µM | – | 34 µM | > 100 µM | – | – | – | 73.8 µM | – | 74.5 µM
O=C(CSCC(=O)N/N=C/c1ccccc1)N/N=C\c1ccccc1 | – | > 100 µM | – | > 100 µM | – | > 100 µM | – | > 100 µM | > 100 | > 100 µM | > 100 µM | – | > 100 µM | – | > 100 µM | – | > 100 µM
N#CC1=C2SCCN2C(=O)C(C#N)C12CCCCC2 (stereo unspecified) | – | > 100 µM | – | > 100 µM | – | > 100 µM | – | > 100 µM | > 100 | > 100 µM | > 100 µM | – | > 100 µM | – | > 100 µM | – | > 100 µM
C=C1C(=O)O[C@@H]2/C=C(\C)CC/C=C(\C)CC[C@@]12O | – | 31.7 µM | – | 16.9 µM | – | 27.1 µM | – | 25.7 µM | 7.29 | 25.2 µM | 4.86 µM | – | 41.6 µM | – | 4.32 µM | – | 31.5 µM
Cc1cc2c(c(O)c1-c1c(C)cc(O)c3c1C(=O)C=CC3=O)C(=O)C=CC2=O | – | – | – | > 56.8 µM | – | 52.4 µM | – | 62.1 µM | – | 33.1 µM | 10.3 µM | – | 13.8 µM | – | 18.4 µM | – | 44.5 µM
O=C(Oc1c(Cl)cc(C2(c3cc(Cl)c(OC(=O)c4ccccc4)c(Cl)c3)CCCCC2)cc1Cl)c1ccccc1 | – | 26.1 µM | – | 35.4 µM | – | 37.1 µM | – | 23.9 µM | 24.7 | 28.6 µM | 32.3 µM | – | 27.1 µM | – | 23.4 µM | – | 26.1 µM
S=c1c2[nH]cnc2ncn1CCSC1=NC=NC2=NC=NC21 (stereo unspecified) | – | > 100 µM | – | > 100 µM | – | > 100 µM | – | > 100 µM | > 100 | > 100 µM | > 100 µM | – | > 100 µM | – | > 100 µM | – | > 100 µM
CNC1Cc2c[nH]c3cccc(c23)C12C=C(C)C(=O)O2 (stereo unspecified) | – | > 100 µM | – | > 100 µM | – | > 100 µM | – | > 100 µM | > 100 | > 100 µM | > 100 µM | – | > 100 µM | – | > 100 µM | – | > 100 µM
